Test results: article PMC3639963, “A New Class of Small Molecule Inhibitor of BMP Signaling” (PLoS ONE, 2013)

Columns and labels:
Test in all cases: Nanosyn kinase profiling
Assay type in all cases: biochemical
Settings in all cases: read-out: Percentage inhibition; for inhibition at 0.1 µM: 0.1 µM inhibitor; for inhibition at 1 µM: 1 µM inhibitor
[1] = molecular target: T1, PIM1 (Homo sapiens, UniProt P11309)
T1 construct: purchased Nanosyn (enzymatic panel); SGC in-house recombinant human kinases (DSF panel); Invitrogen (ALK1-6)
T1 sequence (P11309 whole entry): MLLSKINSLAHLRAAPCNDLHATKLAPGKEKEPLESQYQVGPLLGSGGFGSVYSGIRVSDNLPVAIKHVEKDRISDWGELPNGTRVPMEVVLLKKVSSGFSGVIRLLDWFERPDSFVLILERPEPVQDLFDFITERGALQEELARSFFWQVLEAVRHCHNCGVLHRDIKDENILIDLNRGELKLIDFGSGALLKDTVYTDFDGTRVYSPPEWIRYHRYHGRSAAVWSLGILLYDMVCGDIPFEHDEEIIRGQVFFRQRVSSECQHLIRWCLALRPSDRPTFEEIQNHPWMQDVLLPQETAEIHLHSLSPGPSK
Outline: (§1)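 Percent inhibition of each kinase was measured with the inhibitor at 0.1 µM and at 1 µM, as part of a 200-kinase human selectivity panel.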

[2] = molecular target: T2, TXK (Homo sapiens, UniProt P42681)
T2 construct: purchased Nanosyn (enzymatic panel); SGC in-house recombinant human kinases (DSF panel); Invitrogen (ALK1-6)
T2 sequence (P42681 1-527): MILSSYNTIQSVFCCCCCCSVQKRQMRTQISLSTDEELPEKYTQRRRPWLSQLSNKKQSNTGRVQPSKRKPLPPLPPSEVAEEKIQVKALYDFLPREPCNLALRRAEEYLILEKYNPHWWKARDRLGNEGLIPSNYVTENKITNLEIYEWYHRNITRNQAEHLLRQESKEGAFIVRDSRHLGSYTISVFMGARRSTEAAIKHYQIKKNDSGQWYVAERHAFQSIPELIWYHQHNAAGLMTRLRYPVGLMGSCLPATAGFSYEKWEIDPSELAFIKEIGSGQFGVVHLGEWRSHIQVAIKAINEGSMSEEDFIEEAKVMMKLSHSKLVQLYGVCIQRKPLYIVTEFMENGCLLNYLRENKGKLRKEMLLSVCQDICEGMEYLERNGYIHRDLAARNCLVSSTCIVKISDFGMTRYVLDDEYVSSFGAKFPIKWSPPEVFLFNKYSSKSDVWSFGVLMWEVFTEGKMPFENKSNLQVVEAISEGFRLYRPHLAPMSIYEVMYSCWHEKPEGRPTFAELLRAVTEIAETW
Outline: as §1

[3] = molecular target: T3, SRC (Homo sapiens, UniProt P12931)
T3 construct: purchased Nanosyn (enzymatic panel); SGC in-house recombinant human kinases (DSF panel); Invitrogen (ALK1-6)
T3 sequence (P12931 whole entry): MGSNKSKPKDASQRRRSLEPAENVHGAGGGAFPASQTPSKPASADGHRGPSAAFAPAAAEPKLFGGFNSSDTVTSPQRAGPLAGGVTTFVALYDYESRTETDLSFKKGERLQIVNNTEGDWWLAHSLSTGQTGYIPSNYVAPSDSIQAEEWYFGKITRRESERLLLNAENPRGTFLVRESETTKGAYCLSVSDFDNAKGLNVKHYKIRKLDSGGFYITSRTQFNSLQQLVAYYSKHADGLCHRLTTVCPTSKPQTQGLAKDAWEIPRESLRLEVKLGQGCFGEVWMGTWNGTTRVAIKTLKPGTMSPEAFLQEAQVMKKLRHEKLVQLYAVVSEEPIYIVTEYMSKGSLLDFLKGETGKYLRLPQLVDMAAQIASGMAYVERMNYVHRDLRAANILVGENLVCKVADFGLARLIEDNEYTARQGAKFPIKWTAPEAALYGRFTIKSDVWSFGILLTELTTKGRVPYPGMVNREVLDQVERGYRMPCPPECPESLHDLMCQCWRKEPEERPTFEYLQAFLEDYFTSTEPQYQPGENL
Outline: as §1

[4] = molecular target: T4, p38δ (Homo sapiens, UniProt O15264)
T4 construct: purchased Nanosyn (enzymatic panel); SGC in-house recombinant human kinases (DSF panel); Invitrogen (ALK1-6)
T4 sequence (O15264 1-365): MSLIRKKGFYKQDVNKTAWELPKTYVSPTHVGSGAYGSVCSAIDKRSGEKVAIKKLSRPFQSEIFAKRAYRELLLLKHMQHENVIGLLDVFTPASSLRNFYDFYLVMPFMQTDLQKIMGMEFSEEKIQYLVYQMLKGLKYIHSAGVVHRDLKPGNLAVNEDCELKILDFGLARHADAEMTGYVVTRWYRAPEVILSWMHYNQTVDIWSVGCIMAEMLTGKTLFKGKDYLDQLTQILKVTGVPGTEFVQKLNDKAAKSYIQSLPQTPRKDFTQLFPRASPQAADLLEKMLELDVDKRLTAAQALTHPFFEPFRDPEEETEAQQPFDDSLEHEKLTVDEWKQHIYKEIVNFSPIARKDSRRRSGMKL
Outline: as §1

[5] = molecular target: T5, MARK1 (Homo sapiens, UniProt Q9P0L2)
T5 construct: purchased Nanosyn (enzymatic panel); SGC in-house recombinant human kinases (DSF panel); Invitrogen (ALK1-6)
T5 sequence (Q9P0L2 whole entry): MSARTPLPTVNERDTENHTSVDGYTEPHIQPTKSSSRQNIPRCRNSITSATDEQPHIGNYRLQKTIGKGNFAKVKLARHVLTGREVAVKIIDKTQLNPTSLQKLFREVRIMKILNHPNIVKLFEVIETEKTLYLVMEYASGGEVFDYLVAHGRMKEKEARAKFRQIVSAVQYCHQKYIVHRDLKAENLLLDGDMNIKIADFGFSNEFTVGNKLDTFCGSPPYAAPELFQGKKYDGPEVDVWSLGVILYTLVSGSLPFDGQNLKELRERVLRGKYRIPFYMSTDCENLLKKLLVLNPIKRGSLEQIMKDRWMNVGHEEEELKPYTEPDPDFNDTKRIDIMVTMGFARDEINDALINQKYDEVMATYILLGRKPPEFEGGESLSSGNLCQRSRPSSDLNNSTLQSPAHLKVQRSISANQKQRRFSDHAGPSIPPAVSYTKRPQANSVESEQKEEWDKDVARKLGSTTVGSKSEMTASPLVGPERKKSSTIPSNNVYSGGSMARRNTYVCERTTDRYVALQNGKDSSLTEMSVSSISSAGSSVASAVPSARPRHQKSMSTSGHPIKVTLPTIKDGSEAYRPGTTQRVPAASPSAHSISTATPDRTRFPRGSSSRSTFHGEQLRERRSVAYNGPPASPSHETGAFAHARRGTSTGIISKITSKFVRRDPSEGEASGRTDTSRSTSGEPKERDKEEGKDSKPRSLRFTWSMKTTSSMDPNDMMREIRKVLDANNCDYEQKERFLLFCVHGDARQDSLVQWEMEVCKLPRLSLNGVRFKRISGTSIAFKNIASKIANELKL
Outline: as §1

[6] = molecular target: T6, NEK1 (Homo sapiens, UniProt Q96PY6)
T6 construct: purchased Nanosyn (enzymatic panel); SGC in-house recombinant human kinases (DSF panel); Invitrogen (ALK1-6)
T6 sequence (Q96PY6 1-1258): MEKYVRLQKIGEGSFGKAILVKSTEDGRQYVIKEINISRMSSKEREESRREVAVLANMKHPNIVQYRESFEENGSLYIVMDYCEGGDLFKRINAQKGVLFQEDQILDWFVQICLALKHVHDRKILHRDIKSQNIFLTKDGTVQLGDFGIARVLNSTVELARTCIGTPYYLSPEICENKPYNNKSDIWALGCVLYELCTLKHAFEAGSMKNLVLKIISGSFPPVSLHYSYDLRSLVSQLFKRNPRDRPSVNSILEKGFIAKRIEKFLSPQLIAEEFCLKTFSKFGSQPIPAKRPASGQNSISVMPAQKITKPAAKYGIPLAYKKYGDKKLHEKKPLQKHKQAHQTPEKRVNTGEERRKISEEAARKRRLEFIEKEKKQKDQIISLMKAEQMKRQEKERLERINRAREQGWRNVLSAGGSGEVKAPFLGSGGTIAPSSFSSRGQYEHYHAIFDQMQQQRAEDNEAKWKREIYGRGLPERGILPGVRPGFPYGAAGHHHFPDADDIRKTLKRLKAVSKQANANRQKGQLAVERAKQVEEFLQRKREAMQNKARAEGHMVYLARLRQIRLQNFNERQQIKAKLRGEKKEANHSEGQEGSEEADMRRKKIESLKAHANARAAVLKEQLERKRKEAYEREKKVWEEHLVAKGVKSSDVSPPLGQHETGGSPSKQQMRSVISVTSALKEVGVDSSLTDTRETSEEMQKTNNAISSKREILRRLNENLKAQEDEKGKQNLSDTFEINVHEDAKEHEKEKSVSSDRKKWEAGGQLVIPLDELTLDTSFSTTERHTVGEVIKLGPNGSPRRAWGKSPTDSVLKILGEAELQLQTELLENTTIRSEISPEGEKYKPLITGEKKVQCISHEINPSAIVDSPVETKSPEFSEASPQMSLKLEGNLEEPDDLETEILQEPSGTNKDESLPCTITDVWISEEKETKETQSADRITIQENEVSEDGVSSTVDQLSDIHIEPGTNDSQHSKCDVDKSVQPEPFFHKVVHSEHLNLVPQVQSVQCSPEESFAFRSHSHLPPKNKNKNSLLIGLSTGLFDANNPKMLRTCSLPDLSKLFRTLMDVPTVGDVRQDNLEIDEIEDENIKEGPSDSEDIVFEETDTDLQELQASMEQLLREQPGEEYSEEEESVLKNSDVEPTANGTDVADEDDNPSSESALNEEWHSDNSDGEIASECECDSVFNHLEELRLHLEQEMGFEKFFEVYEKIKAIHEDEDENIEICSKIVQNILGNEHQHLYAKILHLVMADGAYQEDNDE
Outline: as §1

[7] = molecular target: T7, PAK5 (Homo sapiens, UniProt Q9P286)
T7 construct: purchased Nanosyn (enzymatic panel); SGC in-house recombinant human kinases (DSF panel); Invitrogen (ALK1-6)
T7 sequence (Q9P286 whole entry): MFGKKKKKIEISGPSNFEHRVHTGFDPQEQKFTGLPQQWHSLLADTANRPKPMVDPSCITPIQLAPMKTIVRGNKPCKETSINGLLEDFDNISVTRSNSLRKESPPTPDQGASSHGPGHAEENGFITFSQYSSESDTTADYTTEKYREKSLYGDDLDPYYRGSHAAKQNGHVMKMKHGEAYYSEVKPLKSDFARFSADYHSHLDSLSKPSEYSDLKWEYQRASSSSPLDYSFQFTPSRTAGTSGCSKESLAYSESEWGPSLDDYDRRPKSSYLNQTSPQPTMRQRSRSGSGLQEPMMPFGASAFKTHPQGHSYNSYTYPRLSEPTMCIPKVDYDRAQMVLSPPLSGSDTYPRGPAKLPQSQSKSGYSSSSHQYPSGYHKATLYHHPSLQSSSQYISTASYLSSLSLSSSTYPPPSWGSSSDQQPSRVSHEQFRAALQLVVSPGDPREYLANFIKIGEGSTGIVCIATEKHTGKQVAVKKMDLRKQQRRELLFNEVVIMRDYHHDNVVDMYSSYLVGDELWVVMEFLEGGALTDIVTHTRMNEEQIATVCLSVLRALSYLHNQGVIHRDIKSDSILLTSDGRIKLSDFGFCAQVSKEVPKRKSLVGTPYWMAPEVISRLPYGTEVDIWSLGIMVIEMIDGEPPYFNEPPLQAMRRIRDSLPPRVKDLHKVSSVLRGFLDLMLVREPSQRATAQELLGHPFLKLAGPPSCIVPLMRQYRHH
Outline: as §1

SMILES | inhibition at 0.1 µM [1] [%] | inhibition at 1 µM [1] [%] | inhibition at 0.1 µM [2] [%] | inhibition at 1 µM [2] [%] | inhibition at 0.1 µM [3] [%] | inhibition at 1 µM [3] [%] | inhibition at 0.1 µM [4] [%] | inhibition at 1 µM [4] [%] | inhibition at 0.1 µM [5] [%] | inhibition at 1 µM [5] [%] | inhibition at 0.1 µM [6] [%] | inhibition at 1 µM [6] [%] | inhibition at 0.1 µM [7] [%] | inhibition at 1 µM [7] [%]
COc1cc(-c2cc(-c3cccc(O)c3)cnc2N)cc(OC)c1OC [K02288, 3-[6-amino-5-(3,4,5-trimethoxy-phenyl)-pyridin-3-yl]-phenol] | 0.2 | 1.5 | 2.8 | 36 | 5.1 | 40 | -3 | -3 | 1.3 | 4.5 | -1 | 0.8 | -1 | -1
c1ccc2c(-c3cnn4cc(-c5ccc(N6CCNCC6)cc5)cnc34)ccnc2c1 [LDN-193189] | -1 | -1 | 4.1 | 16 | 8 | 33 | 1.8 | 0.5 | 13 | 62 | 2.1 | 3.4 | 6.2 | 8.5
